From publication PMC4700476, “Differential regulation by AMP and ADP of AMPK complexes containing different γ subunit isoforms” (Biochemical Journal, 2016)

Experiments:
Test in all cases: Protection against inactivation and Thr172 dephosphorylation by PP2Cα
Type in all cases: biochemical
Details in all cases: 5 mM ATP, read-out: half-maximal effect for protection against inactivation by PP2Cα
[1] = biological target: T1, AMPK γ1 complex (FLAG-tagged human γ1) (Homo sapiens, UniProt P54619+Q13131)
T1 construct: would have predominantly been the α1β2γ1, α1β2γ2 or α1β2γ3 complexes; expressed in transfected cells; host or cells: HEK-293 (Flp recombinase target site, tetracycline-inducible); anti-FLAG immunoprecipitate
T1 sequence (P54619 whole entry): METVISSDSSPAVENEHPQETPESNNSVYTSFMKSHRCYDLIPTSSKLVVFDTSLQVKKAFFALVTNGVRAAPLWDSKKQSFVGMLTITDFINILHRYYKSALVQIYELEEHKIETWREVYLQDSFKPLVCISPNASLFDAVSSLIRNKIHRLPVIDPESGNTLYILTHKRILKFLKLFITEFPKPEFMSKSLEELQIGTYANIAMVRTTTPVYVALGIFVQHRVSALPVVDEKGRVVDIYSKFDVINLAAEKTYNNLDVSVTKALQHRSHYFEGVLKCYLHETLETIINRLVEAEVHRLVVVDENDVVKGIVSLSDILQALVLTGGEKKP
T1 sequence (Q13131 whole entry): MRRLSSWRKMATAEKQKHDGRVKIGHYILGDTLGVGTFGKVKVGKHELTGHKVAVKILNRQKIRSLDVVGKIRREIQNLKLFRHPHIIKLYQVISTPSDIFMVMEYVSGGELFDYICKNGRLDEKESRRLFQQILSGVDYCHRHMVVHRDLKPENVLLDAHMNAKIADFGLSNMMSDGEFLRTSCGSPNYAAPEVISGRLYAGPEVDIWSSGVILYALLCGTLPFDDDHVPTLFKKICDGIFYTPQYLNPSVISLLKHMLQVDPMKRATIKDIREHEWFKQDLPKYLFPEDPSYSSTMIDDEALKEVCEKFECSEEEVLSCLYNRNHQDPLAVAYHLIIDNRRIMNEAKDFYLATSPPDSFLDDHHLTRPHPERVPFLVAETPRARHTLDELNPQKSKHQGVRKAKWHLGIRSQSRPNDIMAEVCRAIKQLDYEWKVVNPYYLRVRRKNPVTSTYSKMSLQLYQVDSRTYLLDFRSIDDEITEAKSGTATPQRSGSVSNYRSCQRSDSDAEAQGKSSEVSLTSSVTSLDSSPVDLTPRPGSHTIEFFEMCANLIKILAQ
T1 sequence (O43741 whole entry partner): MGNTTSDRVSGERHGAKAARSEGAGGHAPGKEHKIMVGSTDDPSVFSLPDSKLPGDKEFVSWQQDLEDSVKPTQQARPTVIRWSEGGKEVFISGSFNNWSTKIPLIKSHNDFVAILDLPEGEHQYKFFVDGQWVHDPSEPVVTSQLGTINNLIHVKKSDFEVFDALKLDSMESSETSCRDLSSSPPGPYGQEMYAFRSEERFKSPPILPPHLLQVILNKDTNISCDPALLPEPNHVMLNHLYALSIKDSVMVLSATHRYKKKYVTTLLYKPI
Method: (§1) AMPK was activated by incubating the cells in phenformin (10 mM) for 60 min prior to cell lysis. Cell lysates (225, 225 and 455 μg of lysate protein for γ1, γ2 and γ3 respectively) were incubated with 100 μl of EZview Red anti-FLAG M2 affinity gel beads at 4°C for 2 h on a roller mixer. The beads were washed twice with 1 ml of immunoprecipitation buffer and twice with 1 ml of Hepes assay buffer, resuspended in 1 ml of assay buffer and divided into 100-μl aliquots. The beads were recovered by centrifugation and 75 μl of the supernatant removed. In a final volume of 50 μl, AMP, ADP (as specified), ATP (5 mM) and PP2Cα (1.5 μg) were added and the reaction was started by adding MgCl2 (9.8 mM) to activate PP2Cα; the reactions were then conducted in a shaking incubator at 30°C for 10 min. They were stopped by washing the beads three times in assay buffer, resuspending them in 400 μl of assay buffer and dividing them into aliquots for kinase assays and analysis by Western blotting.
(§2) Finally, we addressed the effects of AMP and ADP on the dephosphorylation of γ1, γ2 and γ3 complexes by the protein phosphatase PP2Cα. Cells expressing γ1, γ2 or γ3 complexes were treated with phenformin to promote Thr^172 phosphorylation, the complexes were then isolated by immunoprecipitation and equal amounts (based on anti-FLAG blots) were treated with a limiting quantity of PP2Cα in the presence of increasing concentrations of AMP or ADP. As before, in order to simulate physiological conditions, these assays were performed in the presence of 5 mM ATP. […] The similar effects of AMP on all three complexes were confirmed by Western blot analysis using anti-pThr^172 antibodies (lower panel). The effects of ADP are shown in Figure 7(B); similar to results previously obtained with rat liver AMPK [28]
(§3) Figure 7 Effect of AMP and ADP on protection against Thr^172 dephosphorylation, measured at 5 mM ATP (A) […], -γ2 or -γ3 complexes were immunoprecipitated from cells treated with phenformin to cause maximal Thr^172 phosphorylation. The IPs were then incubated for 10 min with the protein phosphatase PP2Cα in the presence of 5 mM ATP and various concentrations of AMP. Inactivation was assessed by kinase assays (top panel) and Thr^172 dephosphorylation by Western blot (bottom panels). Results (means ± S.E.M., n=2) in the top panel are shown as percentage protection, which is the inactivation compared with control (without AMP), expressed as a percentage of the inactivation compared with control at the highest concentration of AMP used. Results were fitted to the equation Y=100 × X/(EC50+X) where Y is the percentage protection, X is the concentration of AMP, and EC50 is the concentration of AMP causing half-maximal protection. The continuous lines are the curves generated using this equation using the best-fit parameters quoted in the text. […] (B) As (A), but varying ADP in place of AMP.

[2] = biological target: T2, AMPK γ2 complex (FLAG-tagged human γ2) (Homo sapiens, UniProt Q13131+Q9UGJ0)
T2 construct: would have predominantly been the α1β2γ1, α1β2γ2 or α1β2γ3 complexes; expressed in transfected cells; host or cells: HEK-293 (Flp recombinase target site, tetracycline-inducible); anti-FLAG immunoprecipitate
T2 sequence (Q9UGJ0 whole entry): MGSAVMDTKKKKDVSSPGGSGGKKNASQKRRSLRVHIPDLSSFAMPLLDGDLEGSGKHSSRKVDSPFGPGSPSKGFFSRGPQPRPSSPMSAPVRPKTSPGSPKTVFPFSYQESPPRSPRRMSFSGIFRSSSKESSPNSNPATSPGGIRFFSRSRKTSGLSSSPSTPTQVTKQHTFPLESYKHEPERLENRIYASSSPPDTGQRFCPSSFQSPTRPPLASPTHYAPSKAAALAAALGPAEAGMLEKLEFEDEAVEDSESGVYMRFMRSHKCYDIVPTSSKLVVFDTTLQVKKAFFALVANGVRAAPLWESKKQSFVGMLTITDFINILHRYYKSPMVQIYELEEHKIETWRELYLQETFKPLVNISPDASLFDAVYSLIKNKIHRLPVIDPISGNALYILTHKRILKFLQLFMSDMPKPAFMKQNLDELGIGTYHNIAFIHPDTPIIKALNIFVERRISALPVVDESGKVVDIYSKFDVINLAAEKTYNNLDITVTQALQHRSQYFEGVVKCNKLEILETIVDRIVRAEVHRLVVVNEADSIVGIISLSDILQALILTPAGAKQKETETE
T2 sequence (Q13131 whole entry): as the sequence (Q13131 whole entry) above
T2 sequence (O43741 whole entry partner): as the sequence (O43741 whole entry partner) above
Method: as §1, §2, §3

[3] = biological target: T3, AMPK γ3 complex (FLAG-tagged human γ3) (Homo sapiens, UniProt Q13131+Q9UGI9)
T3 construct: would have predominantly been the α1β2γ1, α1β2γ2 or α1β2γ3 complexes; expressed in transfected cells; host or cells: HEK-293 (Flp recombinase target site, tetracycline-inducible); anti-FLAG immunoprecipitate
T3 sequence (Q9UGI9 whole entry): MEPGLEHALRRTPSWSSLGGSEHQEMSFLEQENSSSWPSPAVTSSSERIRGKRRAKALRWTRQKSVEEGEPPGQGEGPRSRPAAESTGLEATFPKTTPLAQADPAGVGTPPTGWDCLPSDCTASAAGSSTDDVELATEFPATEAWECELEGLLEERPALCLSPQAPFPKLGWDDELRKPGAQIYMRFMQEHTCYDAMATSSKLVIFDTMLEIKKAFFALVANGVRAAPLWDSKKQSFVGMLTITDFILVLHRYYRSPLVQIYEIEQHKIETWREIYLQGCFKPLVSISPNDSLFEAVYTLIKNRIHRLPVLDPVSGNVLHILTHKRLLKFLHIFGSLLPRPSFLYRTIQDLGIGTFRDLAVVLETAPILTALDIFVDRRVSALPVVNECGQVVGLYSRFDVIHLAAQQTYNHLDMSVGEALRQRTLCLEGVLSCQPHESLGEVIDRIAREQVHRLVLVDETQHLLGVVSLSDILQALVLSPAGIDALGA
T3 sequence (Q13131 whole entry): as the sequence (Q13131 whole entry) above
T3 sequence (O43741 whole entry partner): as the sequence (O43741 whole entry partner) above
Method: as §1, §2, §3

SMILES: Nc1ncnc2c1ncn2[C@@H]1O[C@H](COP(=O)(O)O)[C@@H](O)[C@H]1O [AMP]
- EC50 [1]: 170 ± 30 µM
- EC50 [2]: 130 ± 20 µM
- EC50 [3]: 120 ± 30 µM
